Test results reported in PMC10630452, “The tumor-enriched small molecule gambogic amide suppresses glioma by targeting WDR1-dependent cytoskeleton remodeling” (Signal Transduction and Targeted Therapy, 2023).

Key:
[1] = Acute toxicity assay, blood routine examination; assay type: in vivo, mice; conditions: for #Retic (Reticulocyte) / CH (corpuscular hemoglobin) / CHCM (Cellular Hemoglobin Concentration Mean) / CHDW (Cell hemoglobin distribution width) / HCT (Hematocrit) / HDW (Hemoglobin Distribution Width) / HGB (Hemoglobin) / MCH (Mean Corpuscular Hemoglobin) / MCHC (Mean corpuscular hemoglobin concentration) / MCV (Mean Corpuscular Volume) / MPV (Mean platelet volume) / PCT (Plateletocrit) / PDW (Platelet distribution width) / PLT (Platelet) / RBC (Red Blood Cell) / RDW (red blood cell volume distribution width) / WBC (White Blood Cell): mice
[2] = system: subcutaneous glioma PDX; assay: Subcutaneous PDX model of glioma (GBM1); assay type: in vivo, nude mice
Procedure: Fig. 2 The BBB permeability and tumor suppressor ability of GA-amide compared with TMZ. GA-amide (a) or TMZ (b) concentration in the tumor area and normal brain tissue following a single injection of GA-amide (10 mg/kg, i.v.) or TMZ (10 mg/kg, i.v.). The data are presented as the means ± SEMs (n = 3). c Western blot analysis of the expression of TrkA in mouse tumor tissues (T) and normal brain tissues (N), n = 4. d Western blot analysis of glycosylated TrkA expression in human normal brain tissues (N) and glioma tissues of different grades. e Time curve of GA-amide and TMZ treatment in a cell viability assay (MTS) in T2-4, GSC2 and T12-1 cells. f–h A PDX mouse model was established, and the mice were treated with vehicle (control, n = 9), 2 mg/kg GA-amide (n = 9), 2 mg/kg GAC (n = 9) or […] TMZ (n = 8) by i.p. injection daily for 10 days. A summary photograph is presented in (f), statistical results in (g) and the body weights of mice in (h); the mean ± SEMs are shown. n.s: P ≥ 0.05, *P < 0.05, **P < 0.01 and ***P < 0.001 compared with the control group by one-way ANOVA at each time point
Male nude mice aged 5–6 weeks were selected for establishment of the in vivo glioma mouse models. For the PDX models, the tumor sample will be soaked in HBSS solution on ice and transferred from the hospital to the laboratory. Patient-related information was shown in Supplementary Table 4). For the subcutaneous PDX models, the isometric fresh GBM tumor (GBM1) specimens were implanted s.c. into the flank of a nude mouse. Then, the mice were treated with GA-amide (2 mg/kg i.p.), gambogic acid (2 mg/kg i.p.), TMZ (65 mg/kg i.p., Selleck) or vehicle after the tumors grew to 100 mm^3. The mouse body weights were measured, and tumor volumes were calculated using the formula L × W^2/2. After treatment, the xenografts were harvested and photographed.

[3] = Acute toxicity assay, body weight; assay type: in vivo, mice; conditions: low dose 1 mg/kg, high dose 10 mg/kg, one-time i.v.
Procedure: a Hematoxylin and eosin staining of sections from control and GA-amide-treated livers, kidney and small intestines, scale bars were shown in the panel. b Persistent records of the body weights and the statistical results of the body weight changes after one-time i.v. treatments of control (DMSO), 1 mg/kg GA-amide and 10 mg/kg GA-amide (n = 6, for control and 1mg/kg GA-amide; n = 5, for 10mg/kg GA-amide) were shown.

[4] = system: GSC2 subcutaneous xenograft; assay: GSC2-derived subcutaneous xenograft model; assay type: in vivo, nude mice; conditions: 2 mg/kg i.p. once daily for 11 days
Procedure: Fig. 3 The inhibitory effects of GA-amide in glioma stem cell-derived mouse models and transgenic mouse models. a, b GSC2 cells were implanted s.c. into nude mice. Mice were treated with control (DMSO) (n = 7) or GA-amide (2 mg/kg) (n = 8) via i.p. injection once daily for 11 days, after which a photograph (a) was taken to show the tumor volume, and the tumor volume was calculated by a modified ellipsoid formula in (b). c, d GSC2 cells were implanted intracranially into nude mice. Mice were injected i.v. with control (n = 8) or 1 mg/kg GA-amide (n = 8) daily for 13 days, the Mantel‒Cox log–rank test was used for analysis, and the relative survival curves are shown in (c). The body weights are shown in (d). e In vivo efficacy studies of GA-amide using transgenic mouse models. Glioma was induced in transgenic C57BL/6 mice by injection of pTomo-Ras-sip53 lentivirus, and the strategy is shown. f, g MRI analysis was used to group mice into the control (n = 7) and GA-amide-treated groups (n = 8) before treatment. The statistical results are shown in (f), and representative MRI images are shown in (g). […]

[5] = system: PDCs; assay: Tumor sphere formation assay; assay type: cell-based, human
Procedure: For the tumor sphere formation assay, cells were inoculated in 96-well plates at 600 cells/well in a volume of 100 μL. The tumor spheres with a diameter of 50–100 μm and a diameter of over 100 μm were counted separately under a microscope after 14 days. For the limiting dilution assay, cells were dissociated to generate a single-cell suspension, which was diluted along a gradient for seeding in a 96-well plate at concentrations ranging from 400 cells to 25 cells in a volume of 100 μL per well.

## CC(C)=CCC[C@]1(C)C=Cc2c(O)c3c(c(CC=C(C)C)c2O1)O[C@]12C(=C[C@@H]4CC1C(C)(C)O[C@@]2(C/C=C(/C)C(N)=O)C4=O)C3=O [GA-amide, gambogic amide]
[1]; 1 mg/kg and 10 mg/kg, one-time i.v., ALT and Cl fluctuated
  routine blood parameters and serum biochemical analytes versus control: no significant differences in routine blood parameters and most analytes evaluated in biochemical analysis of mouse serum
[1]; 1mg/kg one-time i.v.
  #Retic (Reticulocyte): 335.1±72.9 ×109cells/L
  CH (corpuscular hemoglobin): 16.8 ± 0.5 pg
  CHCM (Cellular Hemoglobin Concentration Mean): 35.7 ± 0.8 g/dL
  CHDW (Cell hemoglobin distribution width): 3.00±0.39%
  HCT (Hematocrit): 42.8±7.5%
  HDW (Hemoglobin Distribution Width): 2.66 ± 0.20 g/dL
  HGB (Hemoglobin): 13.0 ± 0.7 g/dL
  MCH (Mean Corpuscular Hemoglobin): 14.5 ± 1.7 pg
  MCHC (Mean corpuscular hemoglobin concentration): 31.0 ± 3.9 g/dL
  MCV (Mean Corpuscular Volume): 47.0 ± 1.8 fL
  MPV (Mean platelet volume): 8.3 ± 0.3 fL
  PCT (Plateletocrit): 1.33±0.30%
  PDW (Platelet distribution width): 48.8±2.5%
  PLT (Platelet): 1603±310 ×103cells/μL
  RBC (Red Blood Cell): 9.09±1.40 ×106cells/μL
  RDW (red blood cell volume distribution width): 16.5±1.2%
  WBC (White Blood Cell): 4.78±1.34 ×103cells/μL
[1]; 10mg/kg one-time i.v.
  #Retic (Reticulocyte): 836.7±674.4 ×109cells/L
  CH (corpuscular hemoglobin): 17.0 ± 0.5 pg
  CHCM (Cellular Hemoglobin Concentration Mean): 35.4 ± 1.3 g/dL
  CHDW (Cell hemoglobin distribution width): 3.15±0.11%
  HCT (Hematocrit): 48.5±5.1%
  HDW (Hemoglobin Distribution Width): 2.71 ± 0.10 g/dL
  HGB (Hemoglobin): 13.6 ± 0.5 g/dL
  MCH (Mean Corpuscular Hemoglobin): 13.6 ± 1.8 pg
  MCHC (Mean corpuscular hemoglobin concentration): 28.4 ± 3.8 g/dL
  MCV (Mean Corpuscular Volume): 47.8 ± 1.1 fL
  MPV (Mean platelet volume): 8.4 ± 0.2 fL
  PCT (Plateletocrit): 1.63±0.60%
  PDW (Platelet distribution width): 49.9±2.3%
  PLT (Platelet): 1936±670 ×103cells/μL
  RBC (Red Blood Cell): 10.13±1.05 ×106cells/μL
  RDW (red blood cell volume distribution width): 17.0±0.6%
  WBC (White Blood Cell): 4.38±0.95 ×103cells/μL
[2]; 2 mg/kg i.p. daily for 10 days
  body weight of mice: did not cause the loss of body weight
  tumor volume versus control: significantly decreased compared with those in the control group
[2]; PDX tumors at endpoint, 10 days treatment
  Ki67, CD133 and cleaved caspase3 in tumor sections (immunohistology): decreased expression of Ki67 and the GSC marker prominin 1 (CD133) as well as an increased level of cleaved caspase3
[2]; after GA-amide treatment
  histology of liver, kidney and small intestine (H&E): no discernible abnormalities
[3]
  body weight after a single injection: did not change the body weight
[4]
  tumor growth: significantly inhibited the growth of tumors
[5]; T2-4 and T12-2, cells from secondary spheres pretreated 4 h
  tertiary tumor sphere formation: still suppressed
[5]; pretreatment 4 h with 0.3 μM, 1 μM and 3 μM
  secondary tumor sphere formation potential: completely abolished
